Measurements from patent publication US20120165309A1, “HETERO RING DERIVATIVE” (Astellas Pharma Inc., priority 2009, published 2012).

Assays:
[1] = target: T1, Human PI3Kα (Homo sapiens, UniProt P42336); assay: PI3Kα enzyme inhibitory activity (Kinase-Glo Plus luminescence); type: biochemical; conditions: Human PI3Kα 12 ng/well, phosphatidylinositol 0.2 μg/well, 37° C. for 3 hours
T1 construct: purchased Millipore Corporation 14-602
Protocol: 2. PI3Kα Enzyme Inhibitory Activity
Human PI3Kα (12 ng/well, Millipore Corporation, Catalogue No. 14-602), phosphatidylinositol (0.2 μg/well), and the test compound were mixed in a 384-well plate in a reaction buffer (50 mM Hepes, 10 mM NaCl, 10 mM MgCl2, 2 mM EGTA, 2 mM DTT, pH 7.3) (total 10 μl), and incubated at 37° C. for 3 hours. After the reaction, 10 μL of a Kinase-Glo Plus reagent (Promega, Catalogue No. V3772) was added thereto, and a luminescence was measured with a luminometer. The IC50 value of the compound was calculated, taking the inhibition rate without addition of the enzyme as 100% and the inhibition rate without addition of the test compound as 0%, by a logistic method.
(§1) In the Table, Ex represents Example Compound No. as described later, PI3Kδ represents the IC50 value (nM) of a PI3Kδ enzyme inhibitory activity, and PI3Kα represents the IC50 value (nM) of a PI3Kα enzyme inhibitory activity.

[2] = target: T2, human PI3Kδ enzyme (Homo sapiens, UniProt O00329); assay: PI3Kδ enzyme inhibitory activity (PI3-Kinase HTRF Assay kit); type: biochemical; conditions: human PI3Kδ 10 ng/well, ATP 30 μM, PIP2 10 μM, room temperature 30 minutes
T2 construct: purchased Millipore Corporation 14-604
Protocol: 1. PI3Kδ Enzyme Inhibitory Activity
For the experiment, a PI3-Kinase HTRF Assay kit (Millipore Corporation, Catalogue No. 33-016) and a human PI3Kδ enzyme (Millipore Corporation, Catalogue No. 14-604) were used. The measurement method was in accordance with the appended instructions. The overview thereof is as follows.
PI3Kδ (10 ng/well), phosphatidylinositol-4,5-bisphosphate (10 μM), ATP (30 μM), and the test compound were mixed in a 384-well plate (total 20 μL), and incubated at room temperature for 30 minutes. EDTA and biotinylated phosphatidylinositol-3,4,5-triphosphate were added thereto to stop the reaction. Thereafter, a Europium labeled anti-GST antibody, a GST bond GRP1 PH domain, and streptavidin-APC were added thereto, followed by incubation overnight. An HTRF ratio was measured using an HTRF plate reader. The IC50 value of the compound was calculated, taking the inhibition rate without addition of the enzyme as 100% and the inhibition rate without addition of the test compound as 0%, by means of a logistic method.
as §1

[3] = system: Spleen cells (B cell proliferation); assay: Rat B cell proliferation inhibition test (anti-rat IgM, [3H]thymidine); type: cell-based; conditions: anti-rat IgM 3 μg/well, 48 hours culture, [3H]thymidine uptake
Protocol: 4. Rat B Cell Proliferation Inhibition Test
Spleen cells (1.0×10^5 cells/well) prepared from male LEW/CrlCrlj rats (Charles River Laboratories, Japan, Inc.), mouse F(ab′)2 fragment anti-rat IgM (3 μg/well, SouthernBiotech Associates, Inc., Catalogue No. 3082-14) and the test compound dissolved in DMSO (final DMSO concentration 0.1%) were mixed in a 96-well plate using a 10% FCS-containing RPMI-1640 culture medium (total 200 μL). They were cultured in a CO2 incubator for 48 hours and [^3H]thymidine (925 GBq/mmol, Moravek Biochemicals, Inc., Catalogue No. MT6038) was added thereto at 0.037 MBq/well at 4 hours before completion of culture. Cells were harvested in a GF/C glass filter using a cell harvester, and a radioactivity on the filter was measured using a liquid scintillation counter. The IC50 value of the compound was calculated, taking the dpm (disintegration per minute) without addition of IgM as an inhibition rate of 100% and the dpm without addition of the test compound as an inhibition rate of 0%, by a logistic method.

T1 sequence (P42336 whole entry): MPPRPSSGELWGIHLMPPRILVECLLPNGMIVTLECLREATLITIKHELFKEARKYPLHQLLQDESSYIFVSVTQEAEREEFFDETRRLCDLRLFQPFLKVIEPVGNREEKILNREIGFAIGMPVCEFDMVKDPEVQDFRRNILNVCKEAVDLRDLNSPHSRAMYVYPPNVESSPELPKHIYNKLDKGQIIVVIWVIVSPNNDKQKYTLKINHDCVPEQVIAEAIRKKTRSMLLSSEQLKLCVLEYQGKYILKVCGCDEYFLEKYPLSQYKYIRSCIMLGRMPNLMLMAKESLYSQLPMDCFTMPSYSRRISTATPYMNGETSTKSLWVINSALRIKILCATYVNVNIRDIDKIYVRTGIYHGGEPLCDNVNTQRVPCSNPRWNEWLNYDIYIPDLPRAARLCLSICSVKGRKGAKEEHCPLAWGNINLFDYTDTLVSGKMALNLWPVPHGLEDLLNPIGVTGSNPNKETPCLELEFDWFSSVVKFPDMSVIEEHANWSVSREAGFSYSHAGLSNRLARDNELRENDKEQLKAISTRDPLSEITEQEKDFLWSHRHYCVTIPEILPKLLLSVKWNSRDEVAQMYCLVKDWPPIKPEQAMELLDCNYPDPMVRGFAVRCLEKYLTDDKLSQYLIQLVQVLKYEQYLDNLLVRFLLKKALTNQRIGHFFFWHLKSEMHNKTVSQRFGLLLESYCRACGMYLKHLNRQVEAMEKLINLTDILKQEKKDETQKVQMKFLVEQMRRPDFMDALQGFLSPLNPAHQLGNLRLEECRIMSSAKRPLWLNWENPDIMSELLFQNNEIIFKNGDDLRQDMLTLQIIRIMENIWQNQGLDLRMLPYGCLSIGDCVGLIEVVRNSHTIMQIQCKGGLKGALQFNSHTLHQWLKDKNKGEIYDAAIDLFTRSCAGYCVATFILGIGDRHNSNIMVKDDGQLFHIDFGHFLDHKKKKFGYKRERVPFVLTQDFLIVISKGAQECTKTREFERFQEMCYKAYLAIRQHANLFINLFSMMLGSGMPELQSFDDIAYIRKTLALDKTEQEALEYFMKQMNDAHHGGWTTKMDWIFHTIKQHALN
T1 sequence (P27986 whole entry partner): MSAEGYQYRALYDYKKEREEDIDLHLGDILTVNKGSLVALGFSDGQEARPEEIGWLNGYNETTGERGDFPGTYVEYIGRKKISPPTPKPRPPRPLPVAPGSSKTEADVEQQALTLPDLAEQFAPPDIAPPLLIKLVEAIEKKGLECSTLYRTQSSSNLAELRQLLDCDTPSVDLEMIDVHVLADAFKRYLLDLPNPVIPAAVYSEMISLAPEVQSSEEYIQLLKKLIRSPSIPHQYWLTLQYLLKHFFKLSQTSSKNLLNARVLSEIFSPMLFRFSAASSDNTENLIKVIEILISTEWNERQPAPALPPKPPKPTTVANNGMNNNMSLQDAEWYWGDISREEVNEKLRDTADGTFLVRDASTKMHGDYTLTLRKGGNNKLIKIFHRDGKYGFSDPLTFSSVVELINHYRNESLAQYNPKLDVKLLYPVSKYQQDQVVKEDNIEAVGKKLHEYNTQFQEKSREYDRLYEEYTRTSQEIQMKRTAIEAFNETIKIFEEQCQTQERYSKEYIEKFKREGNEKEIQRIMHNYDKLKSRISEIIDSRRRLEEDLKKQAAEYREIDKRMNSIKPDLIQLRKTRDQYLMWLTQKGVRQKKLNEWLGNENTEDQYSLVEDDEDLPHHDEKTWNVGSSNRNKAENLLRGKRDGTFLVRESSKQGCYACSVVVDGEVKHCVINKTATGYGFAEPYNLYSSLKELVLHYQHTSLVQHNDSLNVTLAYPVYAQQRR
T2 sequence (O00329 whole entry): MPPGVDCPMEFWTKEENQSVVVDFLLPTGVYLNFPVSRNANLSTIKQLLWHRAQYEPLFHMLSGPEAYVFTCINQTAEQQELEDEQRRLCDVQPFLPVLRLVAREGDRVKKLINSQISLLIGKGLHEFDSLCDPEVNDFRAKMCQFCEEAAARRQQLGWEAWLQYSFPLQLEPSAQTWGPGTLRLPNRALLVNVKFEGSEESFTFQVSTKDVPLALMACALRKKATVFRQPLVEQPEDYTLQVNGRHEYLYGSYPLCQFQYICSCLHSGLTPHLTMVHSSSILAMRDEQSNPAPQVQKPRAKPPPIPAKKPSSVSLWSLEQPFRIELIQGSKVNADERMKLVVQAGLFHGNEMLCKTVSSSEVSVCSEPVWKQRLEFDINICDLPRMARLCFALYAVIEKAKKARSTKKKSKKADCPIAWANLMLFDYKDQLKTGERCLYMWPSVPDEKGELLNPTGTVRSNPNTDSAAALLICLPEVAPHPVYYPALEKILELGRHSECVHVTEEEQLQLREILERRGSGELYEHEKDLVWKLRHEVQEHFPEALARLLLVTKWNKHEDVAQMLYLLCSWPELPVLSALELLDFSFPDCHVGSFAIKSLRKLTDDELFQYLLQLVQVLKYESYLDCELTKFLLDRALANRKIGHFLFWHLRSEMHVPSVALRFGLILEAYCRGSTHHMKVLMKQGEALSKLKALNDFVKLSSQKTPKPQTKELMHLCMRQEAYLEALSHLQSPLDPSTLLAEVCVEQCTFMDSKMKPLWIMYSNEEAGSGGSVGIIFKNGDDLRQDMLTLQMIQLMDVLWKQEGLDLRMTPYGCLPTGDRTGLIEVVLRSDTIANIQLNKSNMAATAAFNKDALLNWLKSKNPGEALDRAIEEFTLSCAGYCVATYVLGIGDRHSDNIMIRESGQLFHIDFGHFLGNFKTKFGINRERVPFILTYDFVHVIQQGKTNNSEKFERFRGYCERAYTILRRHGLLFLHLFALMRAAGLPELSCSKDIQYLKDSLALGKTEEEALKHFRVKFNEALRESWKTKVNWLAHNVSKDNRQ
T2 sequence (P27986 whole entry partner): as the sequence (P27986 whole entry partner) above

Structure (SMILES)	IC50 [1]	IC50 [2]	IC50 [3]
FC(F)c1nc2ccccc2n1-c1cc(NC[C@H]2CC[C@H](N3CCOCC3)CC2)nc(N2CCOCC2)n1 [Example 223]	> 10000 nM	6.2 nM	1.5 nM
CN(CCO)[C@H]1CC[C@H](CNc2nc(N3CCOCC3)cc(-n3c(C(F)F)nc4ccccc43)n2)CC1 [Example 274]	> 3000 nM	9.7 nM	5.5 nM
CCN(CCOC)[C@H]1CC[C@H](CNc2nc(N3CCOCC3)cc(-n3c(C(F)F)nc4ccccc43)n2)CC1 [Example 363]	1400 nM	18 nM	1.4 nM
COCCN(CC(C)F)[C@H]1CC[C@H](CNc2nc(N3CCOCC3)cc(-n3c(C(F)F)nc4ccccc43)n2)CC1 (stereo partly shown) [Example 374]	1200 nM	6.4 nM	2 nM
CN(CC(C)(C)O)[C@H]1CC[C@H](CNc2nc(N3CCOCC3)cc(-n3c(C(F)F)nc4ccccc43)n2)CC1 [Example 375]	1600 nM	12 nM	1.2 nM
CCN(CC(C)(C)O)[C@H]1CC[C@H](CNc2nc(N3CCOCC3)cc(-n3c(C(F)F)nc4ccccc43)n2)CC1 [Example 385]		21 nM	1.9 nM
C[C@H]1COCCN1c1cc(-n2c(C(F)F)nc3ccccc32)nc(NC[C@H]2CC[C@H](N(C)CC(C)(C)O)CC2)n1 [Example 393]	780 nM	7.7 nM	0.7 nM
CC(C)C(O)CN(C)[C@H]1CC[C@H](CNc2nc(N3CCOCC3)cc(-n3c(C(F)F)nc4ccccc43)n2)CC1 (stereo partly shown) [Example 398]	3400 nM	32 nM	2.3 nM
COCC(C)N[C@H]1CC[C@H](CNc2nc(N3CCOCC3)cc(-n3c(C(F)F)nc4ccccc43)n2)CC1 (stereo partly shown) [Example 399]	3200 nM	22 nM	3.4 nM
CC#CCN(CC(C)(C)O)[C@H]1CC[C@H](CNc2nc(N3CCOCC3)cc(-n3c(C(F)F)nc4ccccc43)n2)CC1 [Example 437]	2200 nM	7.1 nM	3.6 nM
CC(C)(O)CN(CC1CCC1)[C@H]1CC[C@H](CNc2nc(N3CCOCC3)cc(-n3c(C(F)F)nc4ccccc43)n2)CC1 [Example 441]	5900 nM	15 nM	4.2 nM
C=CCN(CC(C)(C)O)[C@H]1CC[C@H](CNc2nc(N3CCOCC3)cc(-n3c(C(F)F)nc4ccccc43)n2)CC1 [Example 442]	2700 nM	10 nM	1.2 nM
CC(N(C)[C@H]1CC[C@H](CNc2nc(N3CCOCC3)cc(-n3c(C(F)F)nc4ccccc43)n2)CC1)C(C)(C)O (stereo partly shown) [Example 445]	3400 nM	7 nM	0.72 nM
COCC(C)N[C@H]1CC[C@H](CNc2nc(N3CCOC[C@@H]3C)cc(-n3c(C(F)F)nc4ccccc43)n2)CC1 (stereo partly shown) [Example 446]	1700 nM	8.9 nM	1.7 nM
CC(C)=CCN(CC(C)(C)O)[C@H]1CC[C@H](CNc2nc(N3CCOCC3)cc(-n3c(C(F)F)nc4ccccc43)n2)CC1 [Example 449]	1300 nM	14 nM	2.2 nM
CCCN(CCC)[C@H]1CC[C@H](CNc2nc(N3CCOCC3)cc(-n3c(C(F)F)nc4ccccc43)n2)CC1 [Example 450]	3500 nM	14 nM	2.1 nM
COC[C@@H]1CCCN1C1CCC(CNc2nc(N3CCOCC3)cc(-n3c(C(F)F)nc4ccccc43)n2)CC1 (stereo partly shown) [Example 456]	1800 nM	13 nM	1.1 nM
FC(F)c1nc2ccccc2n1-c1cc(NC[C@H]2CC[C@H](N3CC[C@H](F)C3)CC2)nc(N2CCOCC2)n1 [Example 461]	3800 nM	16 nM	1.1 nM
CCN(C(C)C(C)(C)O)[C@H]1CC[C@H](CNc2nc(N3CCOCC3)cc(-n3c(C(F)F)nc4ccccc43)n2)CC1 (stereo partly shown) [Example 471]	1700 nM	8.1 nM	1.3 nM
O=C(CN1CCCC1)N[C@H]1CC[C@H](Oc2cc(-n3c(C(F)F)nc4ccccc43)nc(N3CCOCC3)n2)CC1 [Example 473]	9900 nM	30 nM	4 nM
CC(C)(O)[C@@H]1CCCN1C1CCC(COc2cc(-n3c(C(F)F)nc4ccccc43)nc(N3CCOCC3)n2)CC1 (stereo partly shown) [Example 486]	3600 nM	9.8 nM	3.6 nM
CC(C)(O)[C@@H]1CCCN1C1CCC(CNc2cc(-n3c(C(F)F)nc4ccccc43)nc(N3CCOCC3)n2)CC1 (stereo partly shown) [Example 487]	4400 nM	7.9 nM	1.4 nM
CN(CC(C)(C)O)[C@H]1CC[C@H](COc2cc(-n3c(C(F)F)nc4ccccc43)nc(N3CCOCC3)n2)CC1 [Example 488]	5600 nM	30 nM	2.8 nM
COCCN(C)[C@H]1CC[C@H](CNc2cc(-n3c(C(F)F)nc4ccccc43)nc(N3CCOCC3)n2)CC1 [Example 497]		16 nM	2.1 nM

Now those with a lower IC50 [2], led by results:

IC50 [1]	IC50 [2]	Structure (SMILES)	IC50 [3]
5800 nM	6 nM	C#CCN[C@H]1CC[C@H](CNc2nc(N3CCOCC3)cc(-n3c(C(F)F)nc4ccccc43)n2)CC1 [Example 422]	4.9 nM
3600 nM	6 nM	CCN(CC)[C@H]1CC[C@H](CNc2nc(N3CCOCC3)cc(-n3c(C(F)F)nc4ccccc43)n2)CC1 [Example 424]	1.7 nM
2400 nM	5.9 nM	FC(F)c1nc2ccccc2n1-c1cc(N2CCOCC2)nc(NC[C@H]2CC[C@H](N3CCOCC3)CC2)n1 [Example 174]	2.4 nM
1700 nM	5.5 nM	COCCN(C1CC1)[C@H]1CC[C@H](CNc2nc(N3CCOCC3)cc(-n3c(C(F)F)nc4ccccc43)n2)CC1 [Example 246]	2.1 nM
2900 nM	5.3 nM	COCC(C)N(C)[C@H]1CC[C@H](CNc2nc(N3CCOC[C@@H]3C)cc(-n3c(C(F)F)nc4ccccc43)n2)CC1 (stereo partly shown) [Example 447]	0.77 nM
2500 nM	4.9 nM	COCCCN(C)[C@H]1CC[C@H](CNc2nc(N3CCOCC3)cc(-n3c(C(F)F)nc4ccccc43)n2)CC1 [Example 280]	3.8 nM
700 nM	4.9 nM	CCN(CC(C)(C)O)[C@H]1CC[C@H](CNc2nc(N3CCOC[C@@H]3C)cc(-n3c(C(F)F)nc4ccccc43)n2)CC1 [Example 403]	0.82 nM
> 3000 nM	4.8 nM	FC(F)c1nc2ccccc2n1-c1cc(N2CCOCC2)nc(NC[C@H]2CC[C@H](N3CCCCC3)CC2)n1 [Example 177]	1.1 nM
3400 nM	4.6 nM	FC[C@@H]1CCCN1[C@H]1CC[C@H](COc2cc(-n3c(C(F)F)nc4ccccc43)nc(N3CCOCC3)n2)CC1 [Example 482]	4.6 nM
1900 nM	4.3 nM	COCC(C)N(C)[C@H]1CC[C@H](CNc2nc(N3CCOCC3)cc(-n3c(C(F)F)nc4ccccc43)n2)CC1 (stereo partly shown) [Example 434]	1.3 nM
950 nM	2.8 nM	CCN(C(C)COC)[C@H]1CC[C@H](CNc2nc(N3CCOCC3)cc(-n3c(C(F)F)nc4ccccc43)n2)CC1 (stereo partly shown) [Example 435]	0.58 nM
2500 nM	2.6 nM	COCCN(CC1CC1)[C@H]1CC[C@H](CNc2nc(N3CCOCC3)cc(-n3c(C(F)F)nc4ccccc43)n2)CC1 [Example 271]	5.5 nM
2300 nM	2.3 nM	C#CCN(CC(C)(C)O)[C@H]1CC[C@H](CNc2nc(N3CCOCC3)cc(-n3c(C(F)F)nc4ccccc43)n2)CC1 [Example 430]	1.8 nM
2600 nM	1.5 nM	FC[C@@H]1CCCN1[C@H]1CC[C@H](CNc2cc(-n3c(C(F)F)nc4ccccc43)nc(N3CCOCC3)n2)CC1 [Example 484]	2.2 nM
